Source: patent US20180265877A1, “METHODS AND COMPOSITIONS FOR AGROBACTERIUM COMPRISING NEGATIVE SELECTION MARKERS” (PIONEER HI-BRED INTERNATIONAL, INC., priority 2015, published 2018)

Key:
Assay type in all cases: cell-based
[1] = system: Agrobacterium strain LBA4404; test: Agrobacterium growth assay on solid minimal medium, LBA4404; parameters: key: a score of zero (0) indicating no visible colonies; 1+ indicating a few isolated colonies; ++: progressing up to 5+; +++: progressing up to 5+; ++++: progressing up to 5+; +++++: 5+ indicating a confluent lawn; settings: LBA4404 plated at 1 × 10^4, after 3 days
Procedure: (§1) For all Agrobacterium growth-assay experiments, standard Agrobacterium minimal medium was used, with no additives as a control treatment, or with the addition of either 5-fluorocytosine, 5-fluorouracil or thymidine. To begin these tests, experiments were conducted to test for growth of wild-type and mutant AGL0 Agrobacterium strains on either 5-fluorocytosine (5-fluorocytosine, the non-toxic substrate of the CODA protein) or 5-fluorouracil (5-fluorouracil, the toxic product).

[2] = system: Agrobacterium strain EHA101; test: Agrobacterium growth assay on solid minimal medium, EHA101; parameters: key: a score of zero (0) indicating no visible colonies; 1+ indicating a few isolated colonies; ++: progressing up to 5+; +++: progressing up to 5+; ++++: progressing up to 5+; +++++: 5+ indicating a confluent lawn; settings: EHA101 plated at 1 x 10^4, after 3 days
Procedure: as §1

AGL0 THY− = test: Agrobacterium growth assay on solid medium, thymidine auxotroph AGL0 THY−; settings: for Growth score: after 24 hours
Procedure: (§2) In Table 4, results of a more detailed kill-curve for strain AGL0 on 5-fluorouracil are shown. […] Finally, a third experiment was performed using either wild-type AGL0 or an auxotrophic mutant of AGL0 in which the gene encoding thymidylate synthase was inactivated, rendering the bacteria incapable of growth in the absence of thymidine (this strain was referred to as AGL0 THY−). The two strains were plated at high densities (10^6 or 10^8 CFU/plate) onto medium containing 0, 1 or 3 μg/ml 5-fluorouracil, with each of these three treatments containing either 0 or 50 mg/l thymidine.

[3] = system: Agrobacterium strain EHA105; test: Agrobacterium growth assay on solid minimal medium, EHA105; parameters: key: a score of zero (0) indicating no visible colonies; 1+ indicating a few isolated colonies; ++: progressing up to 5+; +++: progressing up to 5+; ++++: progressing up to 5+; +++++: 5+ indicating a confluent lawn; settings: EHA105 plated at 1 × 10^4, after 3 days
Procedure: as §1

[4] = system: four Agrobacterium strains (AGL0, LBA4404, EHA101 and EHA105); test: Agrobacterium growth assay, the four strains
Procedure: as §1

[5] = system: Agrobacterium strain AGL0; test: Agrobacterium growth assay on solid minimal medium, wild-type AGL0; parameters: key to Growth score: a score of zero (0) indicating no visible colonies; 1+ indicating a few isolated colonies; ++: progressing up to 5+; +++: progressing up to 5+; ++++: progressing up to 5+; +++++: 5+ indicating a confluent lawn
Procedure: as §1, §2
The newly developed AGL0 mutant strain (THY−/codA+, see Example 1) was plated on varying concentrations of 5-fluorocytosine to assess growth. This strain, along with wild-type AGL0 were cultured overnight in liquid medium, diluted to 10^7 CFU and then 100 μl of suspension was plated onto minimal Agro medium+/− thymidine, with either 0, 100, 200 or 300 μg/ml 5-fluorocytosine, for a total of 8 treatments. After 72 hours at 28° C., the plates were scored for Agrobacterium growth.

SMILES: O=c1[nH]cc(F)c(=O)[nH]1 [5-fluorouracil]
- Growth score ([1]; 0.1 μg/ml 5-fluorouracil): +++
- Growth score ([1]; 1.0 μg/ml 5-fluorouracil): 0
- Growth score ([1]; 3.0 μg/ml 5-fluorouracil): 0
- Growth score ([2]; 0.1 μg/ml 5-fluorouracil): ++
- Growth score ([2]; 1.0 μg/ml 5-fluorouracil): 0
- Growth score ([2]; 3.0 μg/ml 5-fluorouracil): 0
- Growth score (AGL0 THY−; AGL0 THY- 1 x 10^6, 5-fluorouracil 1 μg/ml, no thymidine): 0
- Growth score (AGL0 THY−; AGL0 THY- 1 x 10^6, 5-fluorouracil 1 μg/ml, thy 50 mg/l): 0
- Growth score (AGL0 THY−; AGL0 THY- 1 x 10^6, 5-fluorouracil 3 μg/ml, no thymidine): 0
- Growth score (AGL0 THY−; AGL0 THY- 1 x 10^6, 5-fluorouracil 3 μg/ml, thy 50 mg/l): 0
- Growth score (AGL0 THY−; AGL0 THY- 1 x 10^8, 5-fluorouracil 1 μg/ml, no thymidine): 0
- Growth score (AGL0 THY−; AGL0 THY- 1 x 10^8, 5-fluorouracil 1 μg/ml, thy 50 mg/l): 0
- Growth score (AGL0 THY−; AGL0 THY- 1 x 10^8, 5-fluorouracil 3 μg/ml, no thymidine): 0
- Growth score (AGL0 THY−; AGL0 THY- 1 x 10^8, 5-fluorouracil 3 μg/ml, thy 50 mg/l): 0
- Growth (AGL0 THY−; THY− AGL0, 1 and 3 μg/ml 5-fluorouracil, 0 or 50 mg/l thymidine, 24 hours): no growth was observed
- Growth score ([3]; 0.1 μg/ml 5-fluorouracil): +
- Growth score ([3]; 1.0 μg/ml 5-fluorouracil): 0
- Growth score ([3]; 3.0 μg/ml 5-fluorouracil): 0
- Growth ([4]; 1 μg/ml 5-fluorouracil, all four strains plated at the lower density (1×10^4 CFU)): no growth
- Growth ([4]; 3 μg/ml 5-fluorouracil, any strain): no growth was observed
- Totally inhibiting 5-fluorouracil concentration (3 μg/ml) relative to highest 5-fluorocytosine concentration tested (1000 μg/ml) ([4]; fold lower): over 300 fold
- Growth ([5]; 0.3 μg/ml 5-fluorouracil, plating densities 1×10^3 to 1×10^8 CFU/plate): only a few colonies grew
- Growth ([5]; 1 μg/ml 5-fluorouracil or higher, all plating densities): completely inhibited
- Growth score ([5]; AGL0 1 x 10^6, 5-fluorouracil 1 μg/ml, no thymidine, after 24 hours): 0
- Growth score ([5]; AGL0 1 x 10^6, 5-fluorouracil 1 μg/ml, thy 50 mg/l, after 24 hours): 0
- Growth score ([5]; AGL0 1 x 10^6, 5-fluorouracil 3 μg/ml, no thymidine, after 24 hours): 0
- Growth score ([5]; AGL0 1 x 10^6, 5-fluorouracil 3 μg/ml, thy 50 mg/l, after 24 hours): 0
- Growth score ([5]; AGL0 1 x 10^8, 5-fluorouracil 1 μg/ml, no thymidine, after 24 hours): 0
- Growth score ([5]; AGL0 1 x 10^8, 5-fluorouracil 1 μg/ml, thy 50 mg/l, after 24 hours): 0
- Growth score ([5]; AGL0 1 x 10^8, 5-fluorouracil 3 μg/ml, no thymidine, after 24 hours): 0
- Growth score ([5]; AGL0 1 x 10^8, 5-fluorouracil 3 μg/ml, thy 50 mg/l, after 24 hours): 0
- Growth score ([5]; AGL0 1 × 10^3 CFU, 0.1 μg/ml 5-fluorouracil, 72 hours): ++
- Growth score ([5]; AGL0 1 × 10^3 CFU, 0.3 μg/ml 5-fluorouracil, 72 hours): +
- Growth score ([5]; AGL0 1 × 10^3 CFU, 1 μg/ml 5-fluorouracil, 72 hours): 0
- Growth score ([5]; AGL0 1 × 10^3 CFU, 3 μg/ml 5-fluorouracil, 72 hours): 0
- Growth score ([5]; AGL0 1 × 10^4 CFU, 0.1 μg/ml 5-fluorouracil, 72 hours): ++
- Growth score ([5]; AGL0 1 × 10^4 CFU, 0.3 μg/ml 5-fluorouracil, 72 hours): +
- Growth score ([5]; AGL0 1 × 10^4 CFU, 1 μg/ml 5-fluorouracil, 72 hours): 0
- Growth score ([5]; AGL0 1 × 10^4 CFU, 3 μg/ml 5-fluorouracil, 72 hours): 0
- Growth score ([5]; AGL0 1 × 10^5 CFU, 0.1 μg/ml 5-fluorouracil, 72 hours): +++
- Growth score ([5]; AGL0 1 × 10^5 CFU, 0.3 μg/ml 5-fluorouracil, 72 hours): +
- Growth score ([5]; AGL0 1 × 10^5 CFU, 1 μg/ml 5-fluorouracil, 72 hours): 0
- Growth score ([5]; AGL0 1 × 10^5 CFU, 3 μg/ml 5-fluorouracil, 72 hours): 0
- Growth score ([5]; AGL0 1 × 10^6 CFU, 0.1 μg/ml 5-fluorouracil, 72 hours): ++
- Growth score ([5]; AGL0 1 × 10^6 CFU, 0.3 μg/ml 5-fluorouracil, 72 hours): +
- Growth score ([5]; AGL0 1 × 10^6 CFU, 1 μg/ml 5-fluorouracil, 72 hours): 0
- Growth score ([5]; AGL0 1 × 10^6 CFU, 3 μg/ml 5-fluorouracil, 72 hours): 0
- Growth score ([5]; AGL0 1 × 10^7 CFU, 0.1 μg/ml 5-fluorouracil, 72 hours): ++
- Growth score ([5]; AGL0 1 × 10^7 CFU, 0.3 μg/ml 5-fluorouracil, 72 hours): +
- Growth score ([5]; AGL0 1 × 10^7 CFU, 1 μg/ml 5-fluorouracil, 72 hours): 0
- Growth score ([5]; AGL0 1 × 10^7 CFU, 3 μg/ml 5-fluorouracil, 72 hours): 0
- Growth score ([5]; AGL0 1 × 10^8 CFU, 0.1 μg/ml 5-fluorouracil, 72 hours): +++
- Growth score ([5]; AGL0 1 × 10^8 CFU, 0.3 μg/ml 5-fluorouracil, 72 hours): +
- Growth score ([5]; AGL0 1 × 10^8 CFU, 1 μg/ml 5-fluorouracil, 72 hours): 0
- Growth score ([5]; AGL0 1 × 10^8 CFU, 3 μg/ml 5-fluorouracil, 72 hours): 0
- Growth score ([5]; AGL0 plated at 1 × 10^4, 0.1 μg/ml 5-fluorouracil, after 3 days): +
- Growth score ([5]; AGL0 plated at 1 × 10^4, 1.0 μg/ml 5-fluorouracil, after 3 days): 0
- Growth score ([5]; AGL0 plated at 1 × 10^4, 3.0 μg/ml 5-fluorouracil, after 3 days): 0
- Growth score ([5]; AGL0 plated at 4 × 10^7, 0.1 μg/ml 5-fluorouracil, after 3 days): ++++
- Growth score ([5]; AGL0 plated at 4 × 10^7, 1.0 μg/ml 5-fluorouracil, after 3 days): ++++
- Growth score ([5]; AGL0 plated at 4 × 10^7, 3.0 μg/ml 5-fluorouracil, after 3 days): 0
- Growth ([5]; wild-type AGL0, 1 and 3 μg/ml 5-fluorouracil, 0 or 50 mg/l thymidine, 24 hours): no growth was observed
